Experimental data: ChEMBL document CHEMBL1142012, “Synthesis and SAR of 4-(3-hydroxyphenylamino)pyrrolo[2,1-f][1,2,4]triazine based VEGFR-2 kinase inhibitors” (Bioorg Med Chem Lett, 2005); call rule not given here
pIC50: −log10 of the molar value.

Legend:
Homo sapiens = species: Homo sapiens; settings: Liver, Microsome
[1] = target: Vascular endothelial growth factor receptor 2 (Homo sapiens, UniProt P35968); test: Inhibitory concentration against Vascular endothelial growth factor receptor 2
[2] = Glucuronidation in human liver microsomes was determined; type: ADME, Microsome
Cell line [3] = test: Inhibitory concentration against Human umbilical vein endothelial cells stimulated by VEGF was determined; type: functional, cell-based
Cell line [4] = test: Inhibitory concentration against Human umbilical vein endothelial cells stimulated by VEGF was determined;NA= not active; type: functional, cell-based
[5] = Maximum plasma concentration in mouse after 50 mg/kg oral dosage; type: ADME, organism-based; design: dose 50 mg/kg, route oral
[6] = Area under the concentration time curve (0-4 hr) value in mouse after 50 mg/kg oral dosage; type: ADME, organism-based; design: time < 4 hr, dose 50 mg/kg, route oral; settings: in vivo

Vascular endothelial growth factor receptor 2, sequence (P35968 whole entry): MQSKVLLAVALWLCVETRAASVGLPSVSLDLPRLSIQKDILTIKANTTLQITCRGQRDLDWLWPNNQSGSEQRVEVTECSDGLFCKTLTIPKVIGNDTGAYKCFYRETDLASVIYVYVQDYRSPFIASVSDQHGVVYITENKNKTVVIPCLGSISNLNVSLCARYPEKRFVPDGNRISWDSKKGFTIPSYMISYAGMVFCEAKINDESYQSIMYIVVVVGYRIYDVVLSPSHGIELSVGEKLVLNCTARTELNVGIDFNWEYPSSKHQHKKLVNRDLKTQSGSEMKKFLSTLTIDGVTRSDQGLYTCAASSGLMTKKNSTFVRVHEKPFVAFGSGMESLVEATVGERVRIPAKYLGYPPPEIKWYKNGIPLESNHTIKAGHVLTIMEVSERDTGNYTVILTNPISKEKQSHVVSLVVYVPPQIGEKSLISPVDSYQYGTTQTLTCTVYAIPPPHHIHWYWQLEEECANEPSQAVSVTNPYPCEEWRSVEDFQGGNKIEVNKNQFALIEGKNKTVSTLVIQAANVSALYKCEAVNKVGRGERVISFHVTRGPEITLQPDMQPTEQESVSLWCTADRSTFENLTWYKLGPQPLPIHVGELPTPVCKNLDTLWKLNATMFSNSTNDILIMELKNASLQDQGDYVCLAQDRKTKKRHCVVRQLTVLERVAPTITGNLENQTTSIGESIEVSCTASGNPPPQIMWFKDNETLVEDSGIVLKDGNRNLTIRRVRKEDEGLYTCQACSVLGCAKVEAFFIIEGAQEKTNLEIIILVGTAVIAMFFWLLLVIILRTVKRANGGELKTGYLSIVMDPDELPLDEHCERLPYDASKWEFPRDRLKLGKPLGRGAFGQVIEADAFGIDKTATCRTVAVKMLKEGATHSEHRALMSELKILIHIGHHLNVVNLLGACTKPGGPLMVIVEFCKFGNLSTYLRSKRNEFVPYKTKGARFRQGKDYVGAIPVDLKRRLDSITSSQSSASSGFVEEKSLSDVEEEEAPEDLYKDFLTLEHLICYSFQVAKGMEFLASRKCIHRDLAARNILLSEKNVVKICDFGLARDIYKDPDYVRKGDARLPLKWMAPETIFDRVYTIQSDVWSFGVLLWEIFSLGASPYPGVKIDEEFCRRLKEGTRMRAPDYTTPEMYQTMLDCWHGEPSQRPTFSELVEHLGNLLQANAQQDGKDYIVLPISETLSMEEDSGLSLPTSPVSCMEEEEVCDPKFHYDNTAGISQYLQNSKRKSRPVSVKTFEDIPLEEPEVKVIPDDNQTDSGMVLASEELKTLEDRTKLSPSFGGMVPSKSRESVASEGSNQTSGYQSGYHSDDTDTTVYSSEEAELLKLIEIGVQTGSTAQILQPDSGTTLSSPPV

Row | Compound | pIC50 [1] | pIC50 (Cell line [3]) | Glucuronidation (Homo sapiens) | further results
1 | Cc1ccc(Nc2ncnn3cc(C(=O)NCCCN4CCCC4)c(C)c23)cc1O | 7.40 | 8.00 |  | Glucuronidation [2]: 0.01 nmol/min/mg
2 | COC(=O)c1cn2ncnc(Nc3ccc(Br)c(O)c3)c2c1C | 7.48 |  |  | 
3 | COC(=O)c1cn2ncnc(Nc3ccc(C)c(O)c3)c2c1C(C)(C)C | 6.51 |  |  | IC50 (Cell line [4]): Not Active
4 | CCCc1c(C(=O)NCCCN2CCCC2)cn2ncnc(Nc3ccc(C)c(O)c3)c12 | 7.05 | 7.46 |  | 
5 | COC(=O)c1cn2ncnc(Nc3ccc(C(C)C)c(O)c3)c2c1C | 6.42 |  |  | 
6 | CCOC(=O)c1cn2ncnc(Nc3ccc(C)c(O)c3)c2c1OCC | 7.19 | 7.40 |  | 
7 | COC(=O)c1cn2ncnc(Nc3ccc(C(F)(F)F)c(O)c3)c2c1C | 6.43 |  |  | 
8 | Cc1ccc(Nc2ncnn3cc(C(=O)NCCCN4CCOCC4)c(C)c23)cc1O | 7.28 | 8.52 | 0.01 nmol/min/mg | 
9 | COCCCNC(=O)c1cn2ncnc(Nc3ccc(C)c(O)c3)c2c1C | 6.82 |  | 0.16 nmol/min/mg | 
10 | COC(=O)c1cn2ncnc(Nc3cccc(O)c3)c2c1C | 7.21 |  |  | 
11 | CCCc1ccc(Nc2ncnn3cc(C(=O)OC)c(C)c23)cc1O | 6.72 |  |  | 
12 | CCc1ccc(Nc2ncnn3cc(C(=O)OC)c(C)c23)cc1O | 7.26 |  |  | 

Stronger by pIC50 [1], values ahead:

Row | pIC50 [1] | pIC50 (Cell line [3]) | Compound | Glucuronidation (Homo sapiens) | further results
13 | 7.52 | 7.70 | Cc1ccc(Nc2ncnn3cc(C(=O)NCCCn4nccn4)c(C)c23)cc1O | 0.21 nmol/min/mg | 
14 | 7.74 | 8.10 | Cc1ccc(Nc2ncnn3cc(C(=O)NCCCN4CCCC4)c(C(C)C)c23)cc1O | 0.02 nmol/min/mg | Cmax [5]: 166 nM; AUC(0-t) at 4 h [6]: 0.267 µM·h
15 | 7.85 | 8.40 | CCOC(=O)c1cn2ncnc(Nc3ccc(C)c(O)c3)c2c1C(C)C |  | 
16 | 8.00 |  | COC(=O)c1cn2ncnc(Nc3ccc(C)c(O)c3)c2c1C |  | 
17 | 8.15 |  | Cc1ccc(Nc2ncnn3cc(NC(=O)OCCCn4nccn4)c(C(C)C)c23)cc1O | 0.9 nmol/min/mg | 
18 | 8.30 | 8.30 | Cc1ccc(Nc2ncnn3cc(NC(=O)NCCCN4CCCCC4)c(C(C)C)c23)cc1O | 0.04 nmol/min/mg | 
19 | 8.30 | 9.00 | Cc1ccc(Nc2ncnn3cc(NC(=O)OCCCN4CCCCC4)c(C(C)C)c23)cc1O | 0.08 nmol/min/mg | 
20 | 8.40 | 9.00 | Cc1ccc(Nc2ncnn3cc(OCCCN4CCCCC4)c(C(C)C)c23)cc1O | 0.03 nmol/min/mg | 
21 | 8.52 | 8.22 | CCCc1c(C(=O)OCC)cn2ncnc(Nc3ccc(C)c(O)c3)c12 |  | 
